The target in experiment [1] is T1, Beta-galactosidase (Bos taurus) (UniProt Q58D55).
T1 sequence (whole entry): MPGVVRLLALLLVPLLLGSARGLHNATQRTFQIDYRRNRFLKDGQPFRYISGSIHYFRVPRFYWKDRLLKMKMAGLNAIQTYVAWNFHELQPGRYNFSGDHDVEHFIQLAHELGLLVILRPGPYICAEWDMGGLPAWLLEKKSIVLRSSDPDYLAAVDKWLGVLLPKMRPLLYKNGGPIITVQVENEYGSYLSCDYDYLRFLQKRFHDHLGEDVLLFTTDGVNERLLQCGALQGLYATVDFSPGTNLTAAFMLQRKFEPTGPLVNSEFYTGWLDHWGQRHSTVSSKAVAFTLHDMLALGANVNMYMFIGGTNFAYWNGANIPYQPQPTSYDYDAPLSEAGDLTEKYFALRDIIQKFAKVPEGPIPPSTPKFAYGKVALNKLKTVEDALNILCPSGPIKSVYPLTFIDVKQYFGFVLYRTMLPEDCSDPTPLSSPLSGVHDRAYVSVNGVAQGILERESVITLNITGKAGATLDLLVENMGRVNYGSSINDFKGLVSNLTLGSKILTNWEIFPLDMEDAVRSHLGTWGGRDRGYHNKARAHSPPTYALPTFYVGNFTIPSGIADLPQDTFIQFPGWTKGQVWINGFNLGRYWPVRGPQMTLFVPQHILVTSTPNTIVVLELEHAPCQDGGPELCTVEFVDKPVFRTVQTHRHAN
The experiment in a line: Percentage inhibition of Beta-galactosidase from Bovine liver at 1 mM concentration.

Experiment [2] relates to Saccharomyces cerevisiae. Briefly: Percentage inhibition of Alpha-glucosidase from Yeast (maltase) at 1 mM.
Experiment [3] has as its target Beta-glucosidase A (Caldicellulosiruptor saccharolyticus) (UniProt P10482). The experiment in a line: Percentage inhibition of Beta-Glucosidase from Caldocellum saccharol. at 1 mM.
Experiment [4] in a line: Inhibitory activity towards Alpha-glucosidase from Yeast (maltase). Also on record: species or system Saccharomyces cerevisiae.
Experiment [5] can be described thus: Percentage inhibition of Beta-galactosidase from Aspergillus oryzae at 1 mM; No inhibition.
In experiment [6] the test system is Saccharomyces cerevisiae. Briefly: Percentage inhibition of Alpha-glucosidase from Baker yeast (isomaltase) at 1 mM.
The target in experiment [7] is Beta-galactosidase (Escherichia coli K-12) (UniProt P00722). The experiment in a line: Percentage inhibition of Beta-galactosidase from Escherichia coli at 1 mM concentration.
In experiment [8] the target is T2, Beta-glucosidase A (Caldicellulosiruptor saccharolyticus, UniProt P10482). The experiment in a line: Inhibitory activity towards Beta-Glucosidase from Caldocellum saccharol.
In experiment [9] the test system is Alpha-mannosidase (Prunus dulcis). The experiment in a line: Percentage inhibition of Alpha-mannosidase from Almond at 1 mM.
The target in experiment [10] is T3, Alpha-glucosidase (Oryza sativa Japonica Group) (UniProt Q9LGC6).
T3 sequence (whole entry): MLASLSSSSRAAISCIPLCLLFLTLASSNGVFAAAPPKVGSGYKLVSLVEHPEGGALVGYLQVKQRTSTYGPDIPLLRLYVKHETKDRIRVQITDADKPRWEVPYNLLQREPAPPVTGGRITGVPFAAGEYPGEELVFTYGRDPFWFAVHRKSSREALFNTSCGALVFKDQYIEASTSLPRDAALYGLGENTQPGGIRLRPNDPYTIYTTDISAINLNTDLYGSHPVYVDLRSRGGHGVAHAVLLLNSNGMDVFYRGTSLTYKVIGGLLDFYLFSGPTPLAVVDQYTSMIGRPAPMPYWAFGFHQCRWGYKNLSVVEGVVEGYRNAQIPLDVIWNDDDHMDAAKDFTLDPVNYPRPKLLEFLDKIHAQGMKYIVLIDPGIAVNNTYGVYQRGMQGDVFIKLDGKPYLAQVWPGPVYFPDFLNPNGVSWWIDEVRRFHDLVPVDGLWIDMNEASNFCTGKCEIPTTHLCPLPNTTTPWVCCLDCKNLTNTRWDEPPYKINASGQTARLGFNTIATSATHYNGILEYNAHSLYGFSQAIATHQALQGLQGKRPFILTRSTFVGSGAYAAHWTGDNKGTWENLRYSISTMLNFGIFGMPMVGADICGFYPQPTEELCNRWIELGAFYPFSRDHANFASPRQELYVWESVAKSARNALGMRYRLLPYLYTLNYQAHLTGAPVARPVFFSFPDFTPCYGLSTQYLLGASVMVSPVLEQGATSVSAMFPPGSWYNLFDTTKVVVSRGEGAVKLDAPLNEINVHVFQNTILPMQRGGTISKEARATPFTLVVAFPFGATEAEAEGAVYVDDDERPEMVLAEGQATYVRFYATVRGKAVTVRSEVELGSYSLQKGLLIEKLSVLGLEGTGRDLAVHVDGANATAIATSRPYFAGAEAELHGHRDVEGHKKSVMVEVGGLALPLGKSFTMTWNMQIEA
Briefly: Percentage inhibition of Alpha-glucosidase from Rice (maltase) at 1 mM; […].

Experiment [11] deals with T2, Beta-glucosidase A. Briefly: Inhibitory activity towards Beta-Glucosidase from Caldocellum saccharol.
In experiment [12] the target is Glucoamylase (Aspergillus niger) (UniProt P69328). Briefly: Percentage inhibition of Alpha-glucosidase from Aspergillus niger (amyloglucosidase) at 1 mM; No inhibition.
Experiment [13] in a line: Percentage inhibition of Beta-galactosidase from Jack bean at 1 mM concentration. The following applies: Canavalia ensiformis.
In experiment [14] the target is T4, Glucoamylase 1 (Rhizopus oryzae) (UniProt P07683).
T4 sequence (whole entry): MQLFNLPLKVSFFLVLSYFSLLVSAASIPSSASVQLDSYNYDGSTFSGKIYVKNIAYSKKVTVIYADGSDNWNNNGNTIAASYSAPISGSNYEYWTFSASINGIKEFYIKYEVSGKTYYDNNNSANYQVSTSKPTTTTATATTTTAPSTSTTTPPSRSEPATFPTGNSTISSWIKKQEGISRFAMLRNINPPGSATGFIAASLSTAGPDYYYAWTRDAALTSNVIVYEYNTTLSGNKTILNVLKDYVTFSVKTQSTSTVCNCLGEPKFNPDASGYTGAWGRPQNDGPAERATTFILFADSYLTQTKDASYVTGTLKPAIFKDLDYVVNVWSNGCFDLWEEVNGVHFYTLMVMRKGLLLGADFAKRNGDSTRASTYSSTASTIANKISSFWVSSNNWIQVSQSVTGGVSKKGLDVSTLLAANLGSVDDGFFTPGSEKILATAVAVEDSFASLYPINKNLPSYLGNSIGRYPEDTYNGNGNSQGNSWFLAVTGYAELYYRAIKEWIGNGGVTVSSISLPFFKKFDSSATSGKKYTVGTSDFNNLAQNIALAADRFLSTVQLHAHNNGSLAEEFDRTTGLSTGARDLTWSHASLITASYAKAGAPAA
Briefly: Percentage inhibition of Alpha-glucosidase from Rhizopus mold (amyloglucosidase) at 1 mM concentration; No inhibition. The following applies: Rhizopus arrhizus.

Experiment [15] can be described thus: Inhibitory activity towards Alpha-glucosidase from Baker yeast (isomaltase). Also on record: species or system Saccharomyces cerevisiae.
The target in another experiment is T5, Beta-galactosidase (Bos taurus, UniProt Q58D55).
T5 sequence (Q58D55 whole entry): T1 sequence (whole entry)
Briefly: Inhibitory activity towards Beta-galactosidase from Bovine liver.

The text below walks through data of ChEMBL document CHEMBL1133958, “Derivatives of (2R,3R,4S)-2-aminomethylpyrrolidine-3,4-diol are selective alpha-mannosidase inhibitors” (Bioorg Med Chem Lett, 2001).

A word on the inhibition: it is the drop in the measured response relative to a control, in per cent. Usually IC50 stands for the point on the concentration scale where inhibition reaches its midpoint. Usually Ki stands for the equilibrium dissociation constant of an inhibitor or competing ligand from its target. Low values mean tighter binding, high ones weaker binding.

The source made the active and inactive calls. No cut-off for these calls is given here.

T2 sequence (P10482 whole entry): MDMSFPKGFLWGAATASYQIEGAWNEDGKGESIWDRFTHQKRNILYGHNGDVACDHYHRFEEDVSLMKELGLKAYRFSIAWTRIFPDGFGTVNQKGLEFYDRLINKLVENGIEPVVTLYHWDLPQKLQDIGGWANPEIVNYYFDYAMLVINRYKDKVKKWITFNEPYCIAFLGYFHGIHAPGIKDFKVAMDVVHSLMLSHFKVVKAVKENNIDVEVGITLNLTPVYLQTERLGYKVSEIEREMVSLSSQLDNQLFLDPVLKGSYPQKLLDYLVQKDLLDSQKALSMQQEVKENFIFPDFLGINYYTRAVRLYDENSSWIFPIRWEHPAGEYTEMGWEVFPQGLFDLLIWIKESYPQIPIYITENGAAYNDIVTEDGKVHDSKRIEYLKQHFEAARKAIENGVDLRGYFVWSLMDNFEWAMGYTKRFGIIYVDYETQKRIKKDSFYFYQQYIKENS
Sequence of Beta-glucosidase A (Caldicellulosiruptor saccharolyticus) (P10482 whole entry): as above
Sequence of Beta-galactosidase (Escherichia coli K-12) (P00722 whole entry): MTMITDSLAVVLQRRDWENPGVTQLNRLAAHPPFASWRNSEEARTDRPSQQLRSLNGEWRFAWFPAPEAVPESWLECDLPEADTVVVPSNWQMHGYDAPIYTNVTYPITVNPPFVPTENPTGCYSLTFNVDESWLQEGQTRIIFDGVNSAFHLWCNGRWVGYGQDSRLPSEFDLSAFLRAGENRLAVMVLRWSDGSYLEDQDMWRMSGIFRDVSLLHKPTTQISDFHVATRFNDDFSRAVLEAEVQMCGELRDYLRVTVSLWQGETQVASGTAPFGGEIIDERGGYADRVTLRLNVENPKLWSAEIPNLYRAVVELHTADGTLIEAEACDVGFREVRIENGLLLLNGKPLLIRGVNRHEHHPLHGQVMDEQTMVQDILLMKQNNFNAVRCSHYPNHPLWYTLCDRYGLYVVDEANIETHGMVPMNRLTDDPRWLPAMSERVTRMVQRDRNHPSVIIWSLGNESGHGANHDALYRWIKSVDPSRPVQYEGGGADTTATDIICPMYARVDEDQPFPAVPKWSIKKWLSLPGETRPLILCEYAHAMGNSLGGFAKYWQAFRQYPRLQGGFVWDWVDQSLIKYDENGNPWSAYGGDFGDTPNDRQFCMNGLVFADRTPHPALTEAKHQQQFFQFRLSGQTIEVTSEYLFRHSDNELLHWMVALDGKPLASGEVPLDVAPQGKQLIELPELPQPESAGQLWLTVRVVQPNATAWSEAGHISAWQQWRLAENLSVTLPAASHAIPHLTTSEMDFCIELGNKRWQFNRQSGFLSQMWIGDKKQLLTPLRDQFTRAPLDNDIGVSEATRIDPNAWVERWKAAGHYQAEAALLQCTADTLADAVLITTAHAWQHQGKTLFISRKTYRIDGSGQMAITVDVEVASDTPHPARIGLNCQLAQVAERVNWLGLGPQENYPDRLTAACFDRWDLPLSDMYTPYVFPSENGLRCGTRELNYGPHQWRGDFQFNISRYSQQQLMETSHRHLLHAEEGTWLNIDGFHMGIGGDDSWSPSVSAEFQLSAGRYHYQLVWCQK
Sequence of Glucoamylase (Aspergillus niger) (P69328 whole entry): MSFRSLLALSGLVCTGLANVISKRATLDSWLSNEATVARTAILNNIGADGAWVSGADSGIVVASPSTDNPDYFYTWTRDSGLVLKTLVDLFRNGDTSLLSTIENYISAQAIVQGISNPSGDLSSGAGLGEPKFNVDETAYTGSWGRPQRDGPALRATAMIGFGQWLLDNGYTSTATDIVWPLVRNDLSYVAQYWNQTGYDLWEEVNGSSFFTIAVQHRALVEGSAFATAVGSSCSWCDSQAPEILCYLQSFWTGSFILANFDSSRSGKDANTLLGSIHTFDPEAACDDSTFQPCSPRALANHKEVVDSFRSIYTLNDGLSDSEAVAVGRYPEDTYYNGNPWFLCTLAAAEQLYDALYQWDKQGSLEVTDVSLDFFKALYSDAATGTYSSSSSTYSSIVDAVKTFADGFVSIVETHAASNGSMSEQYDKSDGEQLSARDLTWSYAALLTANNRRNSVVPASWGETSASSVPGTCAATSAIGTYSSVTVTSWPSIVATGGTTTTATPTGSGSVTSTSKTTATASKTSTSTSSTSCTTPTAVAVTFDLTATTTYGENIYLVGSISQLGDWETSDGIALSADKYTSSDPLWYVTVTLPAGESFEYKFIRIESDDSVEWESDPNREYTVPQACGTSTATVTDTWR

For `OC1CNC(CNCC2CCN(Cc3ccccc3)CC2)C1O` (configuration not stated), the inhibition in experiment [1] came to 53%; with Saccharomyces cerevisiae [2] it was 55%; in [3] it was 76%; with Saccharomyces cerevisiae [6] it was 90%; in [7], 39%; in [9], 59%. Moreover, the inhibition in experiment [13] came to 26%. Moreover, the IC50 in [4] was determined as 610 µM; against Beta-glucosidase A [8], 290 µM; in experiment [15], 120 µM; against Beta-galactosidase it was 770 µM. Further, the inhibition result in [5], in [10], in [12] and in experiment [14] was “inactive” in each case. The inhibition constant (Ki) at Beta-glucosidase A [11] was determined as 120 µM; in experiment [15], 40 µM.
